Values of other authors as cited in patent US20200360276A1 (Aerovate Therapeutics, Inc., priority 2019, published 2020).

Legend:
[1] = relative to imatinib parent compound
[2] = relative to imatinib parent compound; remark: listed apart in the source
[3] = tested on: platelet-derived growth factor receptor (PDGFR)
[4] = aqueous solution, dependence on pH

SMILES: Cc1ccc(NC(=O)c2ccc(CN3CCNCC3)cc2)cc1Nc1nccc(-c2cccnc2)n1 [N-desmethyl imatinib]
- potency [1]: same potency as the imatinib parent compound
- half-life [2]: increased half-life relative to the parent imatinib compound
- inhibition of PDGFR [3]: potent inhibitor
- solubility [4]: increases as the pH drops
